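How tested: cells in 96-well plates exposed to compound for 48 hours at five concentrations. Definition used: TGI = concentration required for complete inhibition of growth.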
Tests used:
Test in all cases: NCI anticancer screen, dose series, 48 h
MOLT-4 leukemia = tested on: MOLT-4 leukemia
T-47D breast = tested on: T-47D breast
SK-MEL-2 melanoma = tested on: SK-MEL-2 melanoma
A549 NSCLC = tested on: A549 NSCLC
SNB-75 CNS = tested on: SNB-75 CNS
OVCAR-8 ovarian = tested on: OVCAR-8 ovarian
OVCAR-4 ovarian = tested on: OVCAR-4 ovarian
UO-31 renal = tested on: UO-31 renal
KM12 colon = tested on: KM12 colon
DU-145 prostate = tested on: DU-145 prostate
786-0 renal = tested on: 786-0 renal
MDA-MB-231 breast = tested on: MDA-MB-231 breast
NCI-H226 lung = tested on: NCI-H226 lung
PC-3 prostate = tested on: PC-3 prostate
HOP-62 NSCLC = tested on: HOP-62 NSCLC
HCT-116 colon = tested on: HCT-116 colon
IGROV1 ovarian = tested on: IGROV1 ovarian
NCI-H23 lung = tested on: NCI-H23 lung
CCRF-CEM leukemia = tested on: CCRF-CEM leukemia
ACHN renal = tested on: ACHN renal
SF-539 CNS = tested on: SF-539 CNS
HOP-92 NSCLC = tested on: HOP-92 NSCLC
HCT-15 colon = tested on: HCT-15 colon
K-562 leukemia = tested on: K-562 leukemia
MDA-N = tested on: MDA-N
HS 578T breast = tested on: HS 578T breast
M14 melanoma = tested on: M14 melanoma
SW-620 colon = tested on: SW-620 colon
LOX IMVI melanoma = tested on: LOX IMVI melanoma
NCI/ADR-RES ovarian = tested on: NCI/ADR-RES ovarian
SK-OV-3 ovarian = tested on: SK-OV-3 ovarian
SR leukemia = tested on: SR leukemia
SF-268 CNS = tested on: SF-268 CNS
HL-60(TB) leukemia = tested on: HL-60(TB) leukemia
A498 renal = tested on: A498 renal
UACC-257 melanoma = tested on: UACC-257 melanoma
SNB-19 CNS = tested on: SNB-19 CNS
MDA-MB-435 = tested on: MDA-MB-435
SK-MEL-5 melanoma = tested on: SK-MEL-5 melanoma
OVCAR-5 ovarian = tested on: OVCAR-5 ovarian
COLO 205 colon = tested on: COLO 205 colon
OVCAR-3 ovarian = tested on: OVCAR-3 ovarian
HT29 colon = tested on: HT29 colon
SF-295 CNS = tested on: SF-295 CNS
SN12C renal = tested on: SN12C renal
CAKI-1 renal = tested on: CAKI-1 renal
NCI-H522 lung = tested on: NCI-H522 lung
UACC-62 melanoma = tested on: UACC-62 melanoma
RXF 393 renal = tested on: RXF 393 renal
MALME-3M melanoma = tested on: MALME-3M melanoma
HCC-2998 colon = tested on: HCC-2998 colon
U251 CNS = tested on: U251 CNS
MCF7 breast = tested on: MCF7 breast
SK-MEL-28 melanoma = tested on: SK-MEL-28 melanoma
NCI-H460 lung = tested on: NCI-H460 lung
RPMI-8226 leukemia = tested on: RPMI-8226 leukemia
TK-10 renal = tested on: TK-10 renal
BT-549 breast = tested on: BT-549 breast
EKVX NSCLC = tested on: EKVX NSCLC

`CN=C(NC#N)NCCSCc1nc[nH]c1C` showed a TGI (MOLT-4 leukemia) of over 100 µM, a TGI (T-47D breast) of over 100 µM and a TGI (SK-MEL-2 melanoma) of over 100 µM. It also gave a TGI (A549 NSCLC) of over 100 µM, a TGI (SNB-75 CNS) of 79.3 µM and a TGI (OVCAR-8 ovarian) of over 100 µM. It also gave a TGI (OVCAR-4 ovarian) of over 100 µM, a TGI (UO-31 renal) of over 100 µM and a TGI (KM12 colon) of over 100 µM. It also gave a TGI (DU-145 prostate) of over 100 µM, a TGI (786-0 renal) of over 100 µM and a TGI (MDA-MB-231 breast) of over 100 µM. The TGI (NCI-H226 lung) was over 100 µM, the TGI (PC-3 prostate) was over 100 µM and the TGI (HOP-62 NSCLC) was over 100 µM. It also gave a TGI (HCT-116 colon) of over 100 µM, a TGI (IGROV1 ovarian) of over 100 µM and a TGI (NCI-H23 lung) of over 100 µM. It also gave a TGI (CCRF-CEM leukemia) of over 100 µM, a TGI (ACHN renal) of over 100 µM and a TGI (SF-539 CNS) of over 100 µM. For the same compound, the TGI (HOP-92 NSCLC) was over 100 µM, the TGI (HCT-15 colon) was over 100 µM and the TGI (K-562 leukemia) was over 100 µM. It also gave a TGI (MDA-N) of over 100 µM, a TGI (HS 578T breast) of over 100 µM and a TGI (M14 melanoma) of over 100 µM. For the same compound, the TGI (SW-620 colon) was over 100 µM, the TGI (LOX IMVI melanoma) was over 100 µM and the TGI (NCI/ADR-RES ovarian) was over 100 µM. The TGI (SK-OV-3 ovarian) was over 100 µM, the TGI (SR leukemia) was over 100 µM and the TGI (SF-268 CNS) was over 100 µM. It also gave a TGI (HL-60(TB) leukemia) of over 100 µM, a TGI (A498 renal) of over 100 µM and a TGI (UACC-257 melanoma) of over 100 µM. For the same compound, the TGI (SNB-19 CNS) was over 100 µM, the TGI (MDA-MB-435) was over 100 µM and the TGI (SK-MEL-5 melanoma) was over 100 µM. The TGI (OVCAR-5 ovarian) was over 100 µM, the TGI (COLO 205 colon) was over 100 µM and the TGI (OVCAR-3 ovarian) was over 100 µM. For the same compound, the TGI (HT29 colon) was over 100 µM, the TGI (SF-295 CNS) was over 100 µM and the TGI (SN12C renal) was over 100 µM. The TGI (CAKI-1 renal) was over 100 µM, the TGI (NCI-H522 lung) was over 100 µM and the TGI (UACC-62 melanoma) was over 100 µM. It also gave a TGI (RXF 393 renal) of over 100 µM, a TGI (MALME-3M melanoma) of over 100 µM and a TGI (HCC-2998 colon) of over 100 µM. The TGI (U251 CNS) was over 100 µM, the TGI (MCF7 breast) was over 100 µM and the TGI (SK-MEL-28 melanoma) was over 100 µM. It also gave a TGI (NCI-H460 lung) of over 100 µM.
`O=c1[nH]c(=O)n(C2OC(CO)C(O)C2O)c2ccsc12` (stereo not given) gave a TGI (MOLT-4 leukemia) of over 100 µM, a TGI (SK-MEL-2 melanoma) of over 100 µM and a TGI (A549 NSCLC) of over 100 µM. The TGI (SNB-75 CNS) was over 100 µM, the TGI (RPMI-8226 leukemia) was over 100 µM and the TGI (OVCAR-4 ovarian) was over 100 µM. The TGI (UO-31 renal) was over 100 µM, the TGI (KM12 colon) was over 100 µM and the TGI (DU-145 prostate) was over 100 µM. The TGI (786-0 renal) was over 100 µM, the TGI (MDA-MB-231 breast) was over 100 µM and the TGI (NCI-H226 lung) was over 100 µM. For the same compound, the TGI (PC-3 prostate) was over 100 µM, the TGI (HOP-62 NSCLC) was over 100 µM and the TGI (TK-10 renal) was over 100 µM. For the same compound, the TGI (HCT-116 colon) was over 100 µM, the TGI (IGROV1 ovarian) was over 100 µM and the TGI (NCI-H23 lung) was over 100 µM. For the same compound, the TGI (CCRF-CEM leukemia) was over 100 µM, the TGI (ACHN renal) was over 100 µM and the TGI (SF-539 CNS) was over 100 µM. The TGI (HOP-92 NSCLC) was over 100 µM, the TGI (HCT-15 colon) was over 100 µM and the TGI (K-562 leukemia) was over 100 µM. For the same compound, the TGI (MDA-N) was over 100 µM, the TGI (HS 578T breast) was over 100 µM and the TGI (M14 melanoma) was over 100 µM. It also gave a TGI (SW-620 colon) of over 100 µM, a TGI (LOX IMVI melanoma) of over 100 µM and a TGI (NCI/ADR-RES ovarian) of over 100 µM. For the same compound, the TGI (SR leukemia) was over 100 µM, the TGI (SF-268 CNS) was over 100 µM and the TGI (HL-60(TB) leukemia) was over 100 µM. It also gave a TGI (A498 renal) of over 100 µM, a TGI (BT-549 breast) of over 100 µM and a TGI (UACC-257 melanoma) of over 100 µM. It also gave a TGI (MDA-MB-435) of over 100 µM, a TGI (SK-MEL-5 melanoma) of over 100 µM and a TGI (OVCAR-5 ovarian) of over 100 µM. For the same compound, the TGI (COLO 205 colon) was over 100 µM, the TGI (OVCAR-3 ovarian) was over 100 µM and the TGI (HT29 colon) was over 100 µM. For the same compound, the TGI (SF-295 CNS) was over 100 µM, the TGI (SN12C renal) was over 100 µM and the TGI (CAKI-1 renal) was over 100 µM. It also gave a TGI (EKVX NSCLC) of over 100 µM, a TGI (NCI-H522 lung) of over 100 µM and a TGI (RXF 393 renal) of over 100 µM. For the same compound, the TGI (MALME-3M melanoma) was over 100 µM, the TGI (HCC-2998 colon) was over 100 µM and the TGI (U251 CNS) was over 100 µM. It also gave a TGI (MCF7 breast) of over 100 µM, a TGI (SK-MEL-28 melanoma) of over 100 µM and a TGI (NCI-H460 lung) of over 100 µM.
`ClCCN1CCOC1=Nc1ccc2c(c1)CCCC2` was tested, and the TGI (MOLT-4 leukemia) was 39.9 µM, the TGI (T-47D breast) was 41.1 µM and the TGI (SK-MEL-2 melanoma) was 38.1 µM. It also gave a TGI (A549 NSCLC) of 57.5 µM, a TGI (SNB-75 CNS) of 28.7 µM and a TGI (OVCAR-8 ovarian) of 17.3 µM. For the same compound, the TGI (RPMI-8226 leukemia) was 26.2 µM, the TGI (OVCAR-4 ovarian) was 41.4 µM and the TGI (UO-31 renal) was 30.3 µM. It also gave a TGI (KM12 colon) of 32 µM, a TGI (DU-145 prostate) of 48.4 µM and a TGI (786-0 renal) of 35.3 µM. For the same compound, the TGI (MDA-MB-231 breast) was 31.7 µM, the TGI (NCI-H226 lung) was 30.9 µM and the TGI (PC-3 prostate) was 23 µM. For the same compound, the TGI (HOP-62 NSCLC) was 22 µM, the TGI (HCT-116 colon) was 26.8 µM and the TGI (IGROV1 ovarian) was 24.8 µM. The TGI (NCI-H23 lung) was 26.7 µM, the TGI (CCRF-CEM leukemia) was 35.7 µM and the TGI (ACHN renal) was 28.1 µM. For the same compound, the TGI (SF-539 CNS) was 17.9 µM, the TGI (HOP-92 NSCLC) was 30.7 µM and the TGI (HCT-15 colon) was 48.6 µM. It also gave a TGI (K-562 leukemia) of over 100 µM, a TGI (MDA-N) of 28.3 µM and a TGI (HS 578T breast) of 72 µM. It also gave a TGI (M14 melanoma) of 33 µM, a TGI (SW-620 colon) of 61.2 µM and a TGI (LOX IMVI melanoma) of 32.3 µM. The TGI (NCI/ADR-RES ovarian) was 51.9 µM, the TGI (SK-OV-3 ovarian) was 74.9 µM and the TGI (SR leukemia) was 61.1 µM. It also gave a TGI (SF-268 CNS) of 47.7 µM, a TGI (HL-60(TB) leukemia) of 17.1 µM and a TGI (A498 renal) of 23 µM. It also gave a TGI (UACC-257 melanoma) of 13.2 µM, a TGI (SNB-19 CNS) of 17.8 µM and a TGI (MDA-MB-435) of 29.2 µM. The TGI (SK-MEL-5 melanoma) was 7.38 µM, the TGI (OVCAR-5 ovarian) was 32.4 µM and the TGI (COLO 205 colon) was 25 µM. For the same compound, the TGI (OVCAR-3 ovarian) was 29.3 µM, the TGI (HT29 colon) was 33.1 µM and the TGI (SF-295 CNS) was 31.9 µM. For the same compound, the TGI (SN12C renal) was 27 µM, the TGI (CAKI-1 renal) was 53.8 µM and the TGI (EKVX NSCLC) was 42.3 µM. For the same compound, the TGI (NCI-H522 lung) was 54.9 µM, the TGI (UACC-62 melanoma) was 27.9 µM and the TGI (RXF 393 renal) was 22.6 µM. It also gave a TGI (MALME-3M melanoma) of 20.8 µM, a TGI (HCC-2998 colon) of 30.1 µM and a TGI (U251 CNS) of 28.6 µM. It also gave a TGI (SK-MEL-28 melanoma) of 39.1 µM and a TGI (NCI-H460 lung) of 61.8 µM.

From PubChem BioAssay (NCI)
